The source of these data is patent publication US4738954A, “Novel N^6 -substituted-5'-oxidized adenosine analogs” (Warner-Lambert Company, priority 1985, dated 1988).

Structures are written as SMILES.

The test system of series [1] is locomotor activity. As to the kind of experiment: Activity and Screen Test done orally in rats: locomotor activity. Format: in vivo. As for the experimental part: Immediately following the screen test, the final phase of testing is initiated by placing each group of three mice in one actophotometer (Life Sciences, 22, 1067-1076, 1978). The actophotometer consists of a cylindrical chamber whose center is occupied by another cylinder which contains the illumination for six photocells located on the perimeter of the chamber. Six light-beam interruptions equal one count. Locomotor activity is recorded by computer at ten minute intervals for 60 minutes.
(§1) The data obtained from the screen test are expressed as percent of mice falling off the screen. Data derived from locomotor activity of drug treated mice are compared to the activity of vehicle treated animals and are expressed as percent inhibition of spontaneous locomotion. All percentages reported for inhibition of locomotion (LI) are based upon data accumulated for one hour. Both phases of testing are graded: A=60-100%; C=31-59%; and N=0-30%. An overall dose rating is obtained by the following criteria:
(§2) *This was done orally in rats, rather than IP in mice.

Series [2] deals with animals falling off the inverted screen. The series can be described thus: Activity and Screen Test done orally in rats: screen test. Format: in vivo. The procedure: A two part testing procedure is started one hour postinjection. First, the screen test (ST) is performed (see Pharmac. Biochem. Behav. 6, 351-353, 1977). Briefly this test consists of placing mice on individual wire screens which are then rotated 180 degrees at the start of a 60 second observation period. The number of mice falling off the inverted screen is recorded.
as §1, §2

For series [3], the target named is T1, adenosine A1 receptor (Rattus norvegicus, UniProt P25099).
T1 construct: Whole brain minus cerebellum and brainstem from male Long Evans rats; from tissue; host or cells: rat whole brain minus cerebellum and brainstem, membranes
T1 sequence (P25099 1-326): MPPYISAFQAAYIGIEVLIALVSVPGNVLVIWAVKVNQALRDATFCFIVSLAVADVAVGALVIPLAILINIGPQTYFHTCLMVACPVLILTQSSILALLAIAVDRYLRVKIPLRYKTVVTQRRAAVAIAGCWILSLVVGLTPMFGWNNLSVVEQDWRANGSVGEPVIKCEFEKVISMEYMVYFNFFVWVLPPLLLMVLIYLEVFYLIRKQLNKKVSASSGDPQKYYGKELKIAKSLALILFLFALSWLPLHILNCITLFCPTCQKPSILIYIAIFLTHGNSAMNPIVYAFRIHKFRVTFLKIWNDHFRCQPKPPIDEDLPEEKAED
As to the kind of experiment: Adenosine Receptor Binding--A1 Receptor Affinity (RBA1), [3H]-CHA displacement. Particulars: 1.0 nM [3H]-CHA, rat brain, 25° C, 1 h; read-out: RBA-1 (IC50, A1 receptor affinity). As for the experimental part:
Adenosine Receptor Binding--A1 Receptor Affinity (RBA1)
Whole brain minus cerebellum and brainstem from male Long Evans rats (105-200 g) was homogenized in 30 volumes of ice-cold 0.05M Tris-HCl buffer pH 7.7 using a Brinkman Polytron PT-10, (setting number 6 for 20 seconds) and centrifuged for ten minutes at 20,000×g (Sorvall RC-2), 4° C. The supernatant was discarded, and the pellet was resuspended and centrifuged as before. The pellet was resuspended in 20 ml Tris-HCl buffer containing two International Units/ml of adenosine deaminase (Sigma type III from calf intestinal mucosa), incubated at 37° C. for 30 minutes, then subsequently at 0° C. for ten minutes. The homogenate was again centrifuged, and the final pellet was resuspended in ice-cold 0.05M Tris-HCl buffer pH 7.7 to a concentration of 20 mg/ml original wet tissue weight and used immediately.
Tissue homogenate (10 mg/ml) was incubated in 0.05M Tris-HCl buffer pH 7.7 containing 1.0 nM ((^3 H))-N^6 -cyclohexyladenosine ([^3 H]-CHA) with or without test agents in triplicate for one hour at 25° C. Incubation volume was 2 ml. Unbound [^3 H]-CHA was separated by rapid filtration under reduced pressure through Whatman glass fiber (GF/B) filters. The filters were rinsed three times with 5 ml of ice cold 0.05M Tris-HCl buffer pH 7.7. The radio-labeled ligand retained on the filter was measured by liquid scintillation spectrophotometry after shaking the filters for one hour or longer on a mechanical shaker in 10 ml of Beckman Ready-Solv HP scintillation cocktail.
Nonspecific binding was defined as the binding which occured in the presence of 1 mM theophylline. The concentration of test agent which inhibited 50% of the specific binding (IC50) was determined by nonlinear computer curve fit. The Scatchard plot was calculated by linear regression of the line obtained by plotting the amount of radioligand bound (pmoles/gram of tissue) versus [formula] Since the amount of radioligand bound was a small fraction of the total amount added, free radioligand was defined as the concentration of (nM) of radioligand added to the incubation mixture. The Hill coefficient was calculated by linear regression of the line obtained by plotting the log of the bound radioligand vs the log of the [formula] The maximal number of binding sites (Bmax) was calculated from the Scatchard plot.

Series [4] has as its target T2, adenosine A2 receptor (Rattus norvegicus, UniProt P30543).
T2 construct: Brains were thawed and then kept on ice while the striata were dissected out; tissue Pel-Freez (Rogers, Arkansas) (rat brains); host or cells: rat striatum, membranes
As to the kind of experiment: Adenosine Receptor Binding--A2 Receptor Affinity (RBA2), [3H]NECA displacement. Format: rat (Sprague-Dawley striatal membranes). To be noted: 4 nM [3H]NECA + 50 nM N6-cyclopentyladenosine, rat striatum, 25° C, 60 min; read-out: RBA-2 (IC50, A2 receptor affinity). The procedure: Adenosine Receptor Binding--A2 Receptor Affinity (RBA2)
Brains from 200-500 g mixed sex Sprague-Dawley rats were purchased from Pel-Freez (Rogers, Arkansas). Fresh brains from male Long-Evans hooded rats (Blue Spruce Farms, Altamont, NY) gave essentially identical results. Brains were thawed and then kept on ice while the striata were dissected out. Striata were disrupted in 10 vol of ice-cold 50 mM Tris.HCl (pH 7.7 at 25° C., pH 8.26 at 5° C.) (Tris) for 30 seconds in a Polytron PT-10 (Brinkmann) at setting 5. The suspension was centrifuged at 50,000×g for ten minutes, the supernatant discarded, the pellet resuspended in 10 vol ice-cold Tris as above, recentrifuged, resuspended at 1 g/5 ml, and stored in plastic vials at -70° C. (stable for at least six months). When needed, tissue was thawed at room temperature, disrupted in a Polytron, and kept on ice until used.
All incubations were for 60 minutes at 25° C. in 12×75 mm glass tubes containing 1 ml Tris with 5 mg original tissue weight of rat weight of rat striatal membranes, 4 nM [^3 H]-N-ethyl adenosine-5'-carboxamide ([^3 H]NECA), 50 nM N^6 -cyclopentyladenosine (to eliminate A1 receptor binding), 10 mM MgCl2, 0.1 units/ml of adenosine deaminase and 1% dimethylsulfoxide. N^6 -Cyclopentyladenosine was dissolved at 10 mM in 0.02N HCl and diluted in Tris. Stock solutions and dilutions of N^6 -cyclopentyladenosine could be stored at -20° C. for several months. Test compounds were dissolved at 10 mM in dimethylsulfoxide on the same day as the experiment, and diluted in dimethylsulfoxide to 100× the final incubation concentration. Control incubations received an equal volume (10 μl) of dimethylsulfoxide; the resulting concentration of dimethylsulfoxide had no effect on binding. [^3 H]NECA was diluted to 40 nM in Tris. The membrane suspension (5 mg/0.79 ml) contained sufficient MgCl2 and adenosine deaminase to give 10 mM and 0.1 units/ml, respectively, final concentration in the incubation. […] After all additions, the rack of tubes was vortexed, and the tubes were then incubated for 60 min at 25° C. in a shaking water bath. The rack of tubes was vortexed an additional time halfway through the incubation.
Incubations were terminated by filtration through 2.4 cm GF/B filters under reduced pressure. Each tube was filtered as follows: the contents of the tube were poured on the filter, 4 ml of ice-cold Tris were added to the tube and the contents poured onto the filter, and the filter was washed twice with 4 ml of ice-cold Tris. The filtration was complete in about twelve seconds. Filters were put in scintillation vials, 8 ml of Formula 947 scintillation fluid added, and the vials left overnight, shaken, and counted in a liquid scintillation counter at 40% efficiency.
Nonspecific binding was defined as binding in the presence of 100 μM N^6 -cyclopentyladenosine, and specific binding was defined as total binding minus nonspecific binding. The IC50 was calculated by weighted nonlinear least squares curve-fitting to the mass-action equation. [formula] where Y is cpm bound
T is cpm total binding without drug
S is cpm specific binding without drug
D is the concentration of drug and
K is the IC50 of the drug
Weighting factors were calculated under the assumption that the standard deviation was proportional to the predicted value of Y. Nonspecific binding was treated as a very large (infinite) concentration of drug in the computer analysis.

T2 sequence (P30543 whole entry): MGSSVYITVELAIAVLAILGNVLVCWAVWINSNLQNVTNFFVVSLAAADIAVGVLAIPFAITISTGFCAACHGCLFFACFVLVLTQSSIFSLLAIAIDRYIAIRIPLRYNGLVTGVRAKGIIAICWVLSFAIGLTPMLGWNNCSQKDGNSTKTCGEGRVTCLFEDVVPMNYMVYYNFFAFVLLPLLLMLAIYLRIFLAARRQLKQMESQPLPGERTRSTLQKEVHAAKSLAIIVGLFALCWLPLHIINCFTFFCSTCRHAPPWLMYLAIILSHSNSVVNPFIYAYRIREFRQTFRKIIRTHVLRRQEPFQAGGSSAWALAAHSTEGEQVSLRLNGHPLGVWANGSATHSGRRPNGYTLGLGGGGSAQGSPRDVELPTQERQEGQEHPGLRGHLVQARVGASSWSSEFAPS

In the case of `CCNC(=O)[C@H]1O[C@@H](n2cnc3c(NC4CC5CCC4C5)ncnc32)[C@H](O)[C@@H]1O` (relative stereo) [Example 9, N-6-Norbornyladenosine-5'ethylcarboxamide], the “Inhibition of locomotor activity” value in series [1] (0.1 mg/kg orally) amounted to 37%; in series [1] (0.3 mg/kg orally), 69%; in series [1] (1 mg/kg orally), 89%. Also, the Screen test failure in series [2] (0.1 mg/kg orally) was 33%; in series [2] (0.3 mg/kg orally), 11%; in series [2] (1 mg/kg orally) it was 44%.
Regarding `CCNC(=O)[C@H]1O[C@@H](n2cnc3c(N[C@@H]4CCc5ccccc54)ncnc32)[C@H](O)[C@@H]1O` [Example 2, (R)-N-6-(1-indanyl) adenosine-5'-ethylcarboxamide], the IC50 in series [3] amounted to 0.029 µM; in series [4], 0.161 µM.
As to `CCNC(=O)[C@H]1O[C@@H](n2cnc3c(NC4CCCC4)ncnc32)[C@H](O)[C@@H]1O` [Example 4, N6-cyclopentyladenosine-5'-ethylcarboxamide], the 50% inhibitory concentration (IC50) is 0.0009 µM in series [3] and 0.198 µM in series [4]. Further, the “Inhibition of locomotor activity” value in series [1] (0.1 mg/kg orally) was found to be 33%; in series [1] (0.3 mg/kg orally), 36%; in series [1] (1 mg/kg orally) it was 81%; in series [1] (3 mg/kg orally), 84%; in series [1] (10 mg/kg orally), 84%. Besides, the Screen test failure in series [2] (0.1 mg/kg orally) came to 22%; in series [2] (0.3 mg/kg orally), 6%; in series [2] (1 mg/kg orally) it was 17%; in series [2] (3 mg/kg orally), 22%; in series [2] (10 mg/kg orally), 72%.
`CCOC(=O)[C@H]1O[C@@H](n2cnc3c(N[C@H](C)Cc4ccccc4)ncnc32)[C@H](O)[C@@H]1O` [Example 7, (R)-N-6-[(2-Phenyl-1-methyl)ethyl]-adenosine-5'-ethylcarboxylate]: the IC50 turned out to be 0.016 µM in series [3] and 2.68 µM in series [4].

The IC50 is the point on the concentration scale where inhibition reaches its midpoint.
